Experimental data published in US11865103B2, “Methods of treating disorders associated with glycosylation defective proteins” (CASE WESTERN RESERVE UNIVERSITY, priority 2016, dated 2024).

Test system: hCLRN1^N48K-YFP
Experiment: Hair bundle localization of hCLRN1^N48K-YFP (YFP intensity) in neuromast hair cells of live larvae treated with SERCA inhibitors
Assay type: in vivo, zebrafish
Parameters: key to YFP intensity in the bundle compared to untreated control / YFP intensity, post-exposure hair cell body hCLRN1N48K aggregates recovery: “—” = The YFP intensity in the bundle is similar to untreated control.; “+” = The YFP intensity in the bundle is higher compared to untreated control
Conditions: for Hair bundles with strong expression of hCLRN1^N48K-YFP protein / Increase in trafficking of hCLRN1^N48K to the hair bundle: 1 μM TG or 0.4 μM ART; for Hair bundles with strong expression of hCLRN1^N48K-YFP protein: untreated <5%, FIG. 4I; for Cumulative average of YFP intensity in the ROI in hair bundles (Mean±SEM) / Increase in trafficking of hCLRN1^N48K to the hair bundle: hCLRN1^N48K-YFP, clrn1^+/+ larvae; for Cumulative average of YFP intensity in the ROI in hair bundles (Mean±SEM): 1 uM TG or 0.4 uM ART + 0.01% DMSO in E3 medium, untreated 5.927±0.32; for Increase in trafficking of hCLRN1^N48K to the hair bundle: versus untreated
Method: hCLRN1-YFP predominantly localize to the hair bundle and a weak expression in the hair cell membrane in the transgenic hCLRN1-YFP; clrn1^+/+ zebrafish line, and the human pathogenic variant hCLRN1^N48K-YFP mislocalized in the endoplasmic reticulum (ER) with a small amount manages to get trafficked to the hair bundle of the transgenic hCLRN1^N48K-YFP; clrn1^+/+ zebrafish larvae. A relative quantification of YFP fluorescence intensity was carried-out to compare the quantity of hCLRN1^N48K-YFP that manages to localize in the hair bundle to the hCLRN1-YFP in the hair bundle. To quantify the YFP fluorescence intensity, unadjusted 1 micron middle section images of four hair bundles per neuromast were analyzed in Image J. Fluorescence intensity is reported as the background subtracted Integrated Density value. While Confocal microscopy imaging of neuromast hair bundles from the above mentioned groups, YFP fluorescence channel was unadjusted between siblings from the tested groups, and images chosen for figures were near the mean of the group data. Z-stack image of neuromast hair cells were captures using SP2 confocal microscope and the YFP fluorescence measurements in the hair bundles from 1) control uninjected and 2) unconventional secretory pathway cargo injected groups were obtained using ImageJ. A triangle shaped region of interest covering the area of hair bundle in 1 micron thickness middle section of z-stack image of neuromast hair cells was used to obtain YFP fluorescence pixel intensity measurements (Ihair bundle) and an area without hair cells (Ibackground) in the same image. Fluorescence intensity of YFP (Iload) for each hair bundle in a given neuromast was normalized (Iload=Ihair bundle−Ibackground). We analyzed 4 hair bundle per neuromast per larva, and the YFP fluorescence intensity per neuromast was represented as average of 4 hair bundle YFP intensity (IAvg. load=[…] in a neuromast/larva). And the mean of the total IAvg. load per group was considered for statistical comparison between groups. Student's t-test was used to confirm the observed changes in the YFP intensity in the hair bundles of hGRASP55 mRNA injected compared to hSNX27 mRNA injected and uninjected is significant.
Thapsigargin (TG, 1 mg, Sigma-Aldrich, #T9033) stock in 100% DMSO was diluted in E3 medium to make the required final concentration of the drug. Five different concentrations that were earlier reported to induce ER stress and are non-toxic or lower lethal dose (LD50) in the zebrafish (0.1, 0.5, 1.0, 2.5, 5 μM concentrations) were used in this study. A total of 25 larvae per dosage and treatment duration from the genotypes hCLRN1^N48K-YFP; clrn1^+/+ and hCLRN1-YFP; clrn1^+/+, no older than 72 hours post fertilization (hpf) at the start of the experiment, were placed in a well of 12-well uncoated culture plate (BD Falcon, Canaan, CT). For ER stress induction, larvae were incubated in different dosage of TG from 1 hr to overnight at 28.5° C., followed by three times wash with E3 medium at 28.5° C. (Table 2) and hair cells from the hCLRN1^N48K-YFP; clrn1^+/+ and hCLRN1-YFP; clrn1^+/+ lines were examined for the respective protein distribution pattern in the hair cell bundle and the cell body. Live confocal images of ‘O’ and ‘ML1’ neuromasts per larvae were capture using Leica SP2 confocal microscope with 40× oil immersion objective. Unadjusted 1 micron middle section images of four hair bundles per ML1 neuromast of larvae from TG treated and untreated groups were analyzed using Image J software version v. 1.48 (FIG. 4). The hair bundle trafficked amount of hCLRN1^N48K protein corresponds to the change in YFP intensity in the hair bundle in the TG treated larvae. Quantification of YFP fluorescence intensity was carried out as described in the previous experiment for unconventional trafficking of hCLRN1^N48K-YFP by hGRASP55 cargos. […]

C[C@@H]1CC[C@H]2[C@@H](C)C(=O)O[C@@H]3O[C@@]4(C)CC[C@@H]1[C@]32OO4 [ART, Artemisinin]
Hair bundles with strong expression of hCLRN1^N48K-YFP protein: 76%
YFP intensity in the bundle compared to untreated control (ART 0.1 μM, exposure 1 h): —
YFP intensity in the bundle compared to untreated control (ART 0.1 μM, exposure 2 h): —
YFP intensity in the bundle compared to untreated control (ART 0.1 μM, exposure 4 h): —
YFP intensity in the bundle compared to untreated control (ART 0.1 μM, exposure 6 h): —
YFP intensity in the bundle compared to untreated control (ART 0.1 μM, exposure 8 h): —
YFP intensity in the bundle compared to untreated control (ART 0.1 μM, exposure 10 h): —
YFP intensity, post-exposure hair cell body hCLRN1N48K aggregates recovery (ART 0.1 μM, post-exposure recovery time 10 h): —
YFP intensity, post-exposure hair cell body hCLRN1N48K aggregates recovery (ART 0.1 μM, post-exposure recovery time 24 h): —
YFP intensity, post-exposure hair cell body hCLRN1N48K aggregates recovery (ART 0.1 μM, post-exposure recovery time 48 h): —
YFP intensity in the bundle compared to untreated control (ART 0.25 μM, exposure 1 h): —
YFP intensity in the bundle compared to untreated control (ART 0.25 μM, exposure 6 h): —
YFP intensity in the bundle compared to untreated control (ART 0.25 μM, exposure 10 h): —
YFP intensity, post-exposure hair cell body hCLRN1N48K aggregates recovery (ART 0.25 μM, post-exposure recovery time 10 h): —
YFP intensity, post-exposure hair cell body hCLRN1N48K aggregates recovery (ART 0.25 μM, post-exposure recovery time 24 h): —
YFP intensity, post-exposure hair cell body hCLRN1N48K aggregates recovery (ART 0.25 μM, post-exposure recovery time 48 h): —
YFP intensity in the bundle compared to untreated control (ART 0.4 μM, exposure 1 h): —
YFP intensity in the bundle compared to untreated control (ART 0.4 μM, exposure 2 h): —
YFP intensity in the bundle compared to untreated control (ART 0.4 μM, exposure 6 h): +
Cumulative average of YFP intensity in the ROI in hair bundles (Mean±SEM): 31.04±1.25
Increase in trafficking of hCLRN1^N48K to the hair bundle: 5 folds

C/C=C(/C)C(=O)O[C@H]1C(C)=C2[C@H]([C@@H]1OC(=O)CCCCCCC)[C@@](C)(OC(C)=O)C[C@H](OC(=O)CCC)[C@@]1(O)[C@H]2OC(=O)[C@@]1(C)O [TG, Thapsigargin]
Hair bundles with strong expression of hCLRN1^N48K-YFP protein: 38%
YFP intensity in the bundle compared to untreated control (TG 0.1 μM, exposure 1 h): —
YFP intensity in the bundle compared to untreated control (TG 0.1 μM, exposure 2 h): —
YFP intensity in the bundle compared to untreated control (TG 0.1 μM, exposure 3 h): —
YFP intensity in the bundle compared to untreated control (TG 0.1 μM, exposure 4 h): —
YFP intensity in the bundle compared to untreated control (TG 0.1 μM, exposure 8 h): —
YFP intensity in the bundle compared to untreated control (TG 0.1 μM, exposure 16 h): —
YFP intensity in the bundle compared to untreated control (TG 0.5 μM, exposure 1 h): —
YFP intensity in the bundle compared to untreated control (TG 0.5 μM, exposure 2 h): —
YFP intensity in the bundle compared to untreated control (TG 0.5 μM, exposure 3 h): —
YFP intensity in the bundle compared to untreated control (TG 0.5 μM, exposure 4 h): —
YFP intensity in the bundle compared to untreated control (TG 0.5 μM, exposure 8 h): —
YFP intensity in the bundle compared to untreated control (TG 1.0 μM, exposure 1 h): —
YFP intensity in the bundle compared to untreated control (TG 1.0 μM, exposure 2 h): —
YFP intensity in the bundle compared to untreated control (TG 1.0 μM, exposure 3 h): +
Rescue of mutant protein to the hair bundle (TG dosages lower than 1 μM): inefficient in rescuing mutant protein
Cumulative average of YFP intensity in the ROI in hair bundles (Mean±SEM): 18.59±0.87
Increase in trafficking of hCLRN1^N48K to the hair bundle: 3 folds
